Assay results taken from patent publication US20240358692A1, “TREATMENT OF SCLERODERMA” (Aisa Pharma, Inc., priority 2023, published 2024).

System: participants with SSc-RP
Assay: Average severity of weekly RP attacks (VAS 0-10)
Assay type: in vivo, human
Conditions: Tadalafil 5 mg; for Average Severity of Weekly Symptomatic RP Attacks, Change from Baseline, Mean / Average Severity of Weekly Symptomatic RP Attacks, Change from Baseline, Median / Average Severity of Weekly Symptomatic RP Attacks, Percent Change from Baseline, Mean / Average Severity of Weekly Symptomatic RP Attacks, Percent Change from Baseline, Median: 2nd Baseline RCS subgroup, ITT Part A, last 7 days of dosing period
Description: The absolute change in average severity of weekly RP attacks (VAS 0-10 cm scale) from baseline to the end of each Dosing Period was and will be a secondary outcome variable. The sponsor-developed participant-informed diary will be used to record data. Average severity of weekly RP attacks is defined as the total severity scores of RP attacks divided by total number of RP attacks within the last 7 days of each dosing period. Total severity scores of RP attacks during the last 7 days of screening period divided by the total number of RP attacks will be used as baseline for the analysis of all periods. The variable will be calculated similar to frequency data as before.

[1] = all attacks, by Baseline RCS: second subgroup of Table C-7, ITT Part A

Structure (SMILES): CN1CC(=O)N2[C@H](c3ccc4c(c3)OCO4)c3[nH]c4ccccc4c3C[C@@H]2C1=O [Tadalafil]
- Average Severity of Weekly Symptomatic RP Attacks, Change from Baseline, Mean: −0.60
- Average Severity of Weekly Symptomatic RP Attacks, Change from Baseline, Median: −0.60
- Average Severity of Weekly Symptomatic RP Attacks, Percent Change from Baseline, Mean: −10.43%
- Average Severity of Weekly Symptomatic RP Attacks, Percent Change from Baseline, Median: −10.43%
- Average Severity of Weekly Symptomatic RP Attacks, Change from Baseline, Mean (Excluding Outliers): −1.32
- Average Severity of Weekly Symptomatic RP Attacks, Change from Baseline, Median (Excluding Outliers): −1.32
- Average Severity of Weekly Symptomatic RP Attacks, Percent Change from Baseline, Mean (Excluding Outliers): −22.01%
- Average Severity of Weekly Symptomatic RP Attacks, Percent Change from Baseline, Median (Excluding Outliers): −22.01%
- Average Severity (0-10) of weekly RP attacks, Mean [1]: 7.02
- Average Severity (0-10) of weekly RP attacks, Median [1]: 7.02
- Average severity of weekly RP attacks, Change from Baseline, Mean [1]: −0.47
- Average severity of weekly RP attacks, Change from Baseline, Median [1]: −0.47
- Average severity of weekly RP attacks, Percent Change from Baseline, Mean [1]: −8.97%
- Average severity of weekly RP attacks, Percent Change from Baseline, Median [1]: −8.97%
